The values below are quoted from earlier work in US20110034478A1, “Oral Pharmaceutical Compositions in a Solid Dispersion Comprising Preferably Posaconazole and HPMCAs” (Schering-Plough Corporation, priority 2008, published 2011).

Experiment in series [1]: not given
The source holds these as a separate data set.

A word on the pKa: it is the negative logarithm of the acid dissociation constant. With `CCC(C)n1ncn(-c2ccc(N3CCN(c4ccc(OC[C@H]5CO[C@](Cn6cncn6)(c6ccc(Cl)cc6Cl)O5)cc4)CC3)cc2)c1=O` (mixture of isomers) [Itraconazole], the pKa is 3.7. For the same compound, the “solubility in water” value in series [1] is recorded as “practically insoluble”. Regarding `OC(Cn1cncn1)(Cn1cncn1)c1ccc(F)cc1F` [Fluconazole], in series [1], the solubility in water entry is reported as “about 1 ug/ml”. In the case of `CC(C(=O)Nc1cc(-c2ccccc2)nn1-c1ccccc1)N(C)C` (stereo not shown) [Difenamizole], in series [1], the “solubility in water” value is “practically insoluble”. Consider `CCC(C)n1ncn(-c2ccc(N3CCN(c4ccc(OCC5CO[C@](Cn6cncn6)(c6ccc(F)cc6F)O5)cc4)CC3)cc2)c1=O` (stereo partly shown) [Saperconazole], for which the “solubility in water” value in series [1] is given as “poorly soluble”. Take `CC(C)N1CCN(c2ccc(OC[C@H]3CO[C@](Cn4cncn4)(c4ccc(Cl)cc4Cl)O3)cc2)CC1` (racemic) [Terconazole]: in series [1], the solubility in water is below 100 µg/mL. Take `N#Cc1ccc(C(c2ccc(C#N)cc2)n2cncn2)cc1` [Letrozole]: the “solubility in water” value in series [1] was “practically insoluble”.
